Data from US20230117470A1, “SUBSTITUTED PYRAZOLE COMPOUNDS AS TOLL RECEPTOR INHIBITORS” (BRISTOL-MYERS SQUIBB COMPANY, priority 2019, published 2023).

Key:
Format in all cases: cell-based
human TLR8 = biological target: T1, human TLR8 (Homo sapiens, UniProt Q9NR97); assay: TLR8 inhibition reporter assay (HEK-Blue cells, SEAP reporter, R848 stimulation); conditions: HEK-Blue cells overexpressing human TLR8, SEAP reporter, R848 15.9 μM
T1 construct: host or cells: HEK-Blue cells
T1 sequence (Q9NR97 27-1041): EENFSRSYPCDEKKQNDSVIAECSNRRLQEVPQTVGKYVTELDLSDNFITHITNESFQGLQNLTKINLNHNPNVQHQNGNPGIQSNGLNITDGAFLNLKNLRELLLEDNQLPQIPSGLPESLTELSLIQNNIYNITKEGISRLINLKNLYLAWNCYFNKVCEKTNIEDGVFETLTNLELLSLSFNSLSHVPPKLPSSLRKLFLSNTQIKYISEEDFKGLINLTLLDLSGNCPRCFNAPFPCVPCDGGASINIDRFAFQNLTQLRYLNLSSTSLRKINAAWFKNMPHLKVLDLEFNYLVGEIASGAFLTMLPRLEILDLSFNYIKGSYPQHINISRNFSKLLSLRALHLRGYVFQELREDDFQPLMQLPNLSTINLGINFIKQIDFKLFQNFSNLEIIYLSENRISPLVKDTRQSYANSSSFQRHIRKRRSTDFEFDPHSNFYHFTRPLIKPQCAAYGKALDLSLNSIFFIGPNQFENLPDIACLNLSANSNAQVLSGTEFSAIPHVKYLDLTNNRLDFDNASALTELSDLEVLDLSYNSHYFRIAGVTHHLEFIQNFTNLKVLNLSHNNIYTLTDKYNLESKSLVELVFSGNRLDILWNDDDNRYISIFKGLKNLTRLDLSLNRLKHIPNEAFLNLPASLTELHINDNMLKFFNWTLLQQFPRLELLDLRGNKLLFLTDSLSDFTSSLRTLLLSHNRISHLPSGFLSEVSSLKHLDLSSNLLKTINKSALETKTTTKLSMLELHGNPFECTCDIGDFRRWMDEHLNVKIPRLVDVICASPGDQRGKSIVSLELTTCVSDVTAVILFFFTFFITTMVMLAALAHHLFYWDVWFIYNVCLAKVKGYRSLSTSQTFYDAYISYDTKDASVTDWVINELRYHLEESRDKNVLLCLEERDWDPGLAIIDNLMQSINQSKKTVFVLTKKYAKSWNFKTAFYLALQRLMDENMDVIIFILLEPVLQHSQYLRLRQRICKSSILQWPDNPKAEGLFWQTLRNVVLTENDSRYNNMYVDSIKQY
Summary of the method: (§1)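 Ligand levels differed by receptor: TLR7 got gardiquimod at 7.5 μM, TLR8 got R848 at 15.9 μM, and TLR9 got ODN2006 at 5 nM, each added after a 30-min room-temperature compound exposure. Incubation lasted 22 h at 37° C before colorimetric SEAP detection.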

human TLR7 = biological target: T2, human TLR7 (Homo sapiens, UniProt Q9NYK1); assay: TLR7 inhibition reporter assay (HEK-Blue cells, SEAP reporter, gardiquimod stimulation); conditions: HEK-Blue cells overexpressing human TLR7, SEAP reporter, gardiquimod 7.5 μM
T2 construct: host or cells: HEK-Blue cells
T2 sequence (Q9NYK1 27-1049): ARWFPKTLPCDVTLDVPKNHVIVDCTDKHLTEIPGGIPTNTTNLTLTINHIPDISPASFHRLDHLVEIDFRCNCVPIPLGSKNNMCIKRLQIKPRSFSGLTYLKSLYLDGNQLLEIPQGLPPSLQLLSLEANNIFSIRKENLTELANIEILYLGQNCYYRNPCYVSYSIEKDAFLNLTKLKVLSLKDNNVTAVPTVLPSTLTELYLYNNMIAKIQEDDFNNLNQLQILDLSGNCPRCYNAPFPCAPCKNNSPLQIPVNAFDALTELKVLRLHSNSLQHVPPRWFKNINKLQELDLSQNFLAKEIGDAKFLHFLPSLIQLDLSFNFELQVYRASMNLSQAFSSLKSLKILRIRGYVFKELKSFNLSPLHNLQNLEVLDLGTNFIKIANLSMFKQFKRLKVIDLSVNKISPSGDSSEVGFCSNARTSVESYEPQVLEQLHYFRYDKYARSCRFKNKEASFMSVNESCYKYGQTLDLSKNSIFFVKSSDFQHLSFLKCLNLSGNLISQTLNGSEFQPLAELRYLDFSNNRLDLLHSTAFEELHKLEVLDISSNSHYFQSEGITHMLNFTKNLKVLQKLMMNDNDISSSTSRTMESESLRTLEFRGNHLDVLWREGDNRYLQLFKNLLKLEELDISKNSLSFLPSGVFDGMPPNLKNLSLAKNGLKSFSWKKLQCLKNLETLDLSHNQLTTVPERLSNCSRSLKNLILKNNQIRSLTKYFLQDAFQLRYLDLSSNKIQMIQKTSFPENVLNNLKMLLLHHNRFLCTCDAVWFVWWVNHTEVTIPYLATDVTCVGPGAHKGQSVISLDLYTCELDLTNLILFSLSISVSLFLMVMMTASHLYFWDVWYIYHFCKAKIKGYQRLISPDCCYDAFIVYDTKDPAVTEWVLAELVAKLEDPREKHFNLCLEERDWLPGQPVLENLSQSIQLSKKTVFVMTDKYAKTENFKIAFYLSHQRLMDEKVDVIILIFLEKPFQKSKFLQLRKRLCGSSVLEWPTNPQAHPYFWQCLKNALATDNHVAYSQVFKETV
Summary of the method: as §1

human TLR9 = biological target: T3, human TLR9 (Homo sapiens, UniProt Q9NR96); assay: TLR9 inhibition reporter assay (HEK-Blue cells, SEAP reporter, ODN2006 stimulation); conditions: HEK-Blue cells overexpressing human TLR9, SEAP reporter, ODN2006 5 nM
T3 construct: host or cells: HEK-Blue cells
T3 sequence (Q9NR96 26-1032): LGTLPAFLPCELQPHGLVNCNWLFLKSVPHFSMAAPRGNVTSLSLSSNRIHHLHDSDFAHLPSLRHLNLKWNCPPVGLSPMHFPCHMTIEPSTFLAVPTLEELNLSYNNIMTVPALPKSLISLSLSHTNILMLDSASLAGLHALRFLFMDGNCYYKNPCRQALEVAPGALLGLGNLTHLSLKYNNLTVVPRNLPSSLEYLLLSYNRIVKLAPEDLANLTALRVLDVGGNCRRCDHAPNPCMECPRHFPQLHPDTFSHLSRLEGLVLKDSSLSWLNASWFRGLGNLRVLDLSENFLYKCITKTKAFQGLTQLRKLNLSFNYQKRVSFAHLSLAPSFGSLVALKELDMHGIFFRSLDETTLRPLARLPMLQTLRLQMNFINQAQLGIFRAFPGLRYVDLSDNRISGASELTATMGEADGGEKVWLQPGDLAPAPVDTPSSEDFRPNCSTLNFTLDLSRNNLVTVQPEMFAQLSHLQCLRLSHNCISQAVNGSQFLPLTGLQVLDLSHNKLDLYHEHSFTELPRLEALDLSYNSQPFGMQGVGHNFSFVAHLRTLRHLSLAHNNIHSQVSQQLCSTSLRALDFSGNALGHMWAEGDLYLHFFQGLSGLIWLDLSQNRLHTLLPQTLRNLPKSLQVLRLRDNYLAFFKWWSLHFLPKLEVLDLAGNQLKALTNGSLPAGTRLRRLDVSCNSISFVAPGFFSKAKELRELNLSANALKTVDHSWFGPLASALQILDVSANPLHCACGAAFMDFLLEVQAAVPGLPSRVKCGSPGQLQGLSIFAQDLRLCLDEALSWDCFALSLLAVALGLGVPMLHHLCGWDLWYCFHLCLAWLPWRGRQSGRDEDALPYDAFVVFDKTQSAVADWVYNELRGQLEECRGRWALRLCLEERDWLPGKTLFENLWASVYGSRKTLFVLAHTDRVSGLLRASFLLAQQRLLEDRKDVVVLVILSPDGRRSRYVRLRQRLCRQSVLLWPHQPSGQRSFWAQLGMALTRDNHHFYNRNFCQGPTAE
Summary of the method: as §1

Row | IC50 (human TLR8) [nM] | IC50 (human TLR7) [nM] | IC50 (human TLR9) [nM] | Compound
1 | > 3130 | 719 | 45600 | Cc1cc(-c2[nH]nc(-c3ccc(C4CCN(C(C)C)CC4)nc3)c2C(C)C)cn2ncnc12 [Example 361]
2 | 3.38 | 4.64 | 5220 | Cc1cc(-c2[nH]nc(-c3ccc(C4CCNCC4)nc3)c2C(C)C)cn2ncnc12 [Example 340]
3 | 7.94 | 6.3 | 19200 | COc1c(C)c(-c2[nH]nc(-c3ccc(C4CCNCC4)cn3)c2C(C)C)cn2ncnc12 [Example 346]
4 | 6 | 2.3 | 15000 | Cc1cc(-c2[nH]nc(-c3ccc4c(c3)CCNC4=O)c2C(C)C)cn2ncnc12 [Example 215]
5 | 18.6 | 1.44 | 35900 | Cc1cc(-c2[nH]nc(-c3nc4c(s3)CNCC4)c2C(C)C)cn2ncnc12 [Example 218]
6 | 11.4 | 4.43 | 18200 | Cc1cc(-c2[nH]nc(-c3ccc(N)nc3)c2C(C)C)cn2ncnc12 [Example 227]
7 | 12.6 | 19.6 | > 50000 | Cc1cc(-c2[nH]nc(-c3ccc(C4CCNCC4)cn3)c2C(C)C)cn2ncnc12 [Example 342]
8 | 0.29 | 4.87 | 5490 | Cc1cc(-c2[nH]nc(-c3ccc(N(C)C)nc3)c2C(C)C)cn2ncnc12 [Example 237]

Continued, compound first:

Row | Compound | IC50 (human TLR8) [nM] | IC50 (human TLR7) [nM] | IC50 (human TLR9) [nM]
9 | Cc1cc(-c2[nH]nc(C(=O)N[C@H]3CC[C@@H](N(CCC(C)C)CCC(C)C)CC3)c2C(C)C)cn2ncnc12 [Example 91] | 8.12 | 4.01 | 6720
10 | COc1cc(-c2[nH]nc(-c3ccc(C4CN(C5CCOCC5)C4)cc3)c2C(C)C)cn2ncnc12 [Example 333] | 2.19 | 34.9 | 37400
11 | Cc1cc(-c2[nH]nc(-c3ccc4c(c3)CCN(CC(C)(C)O)C4)c2C(C)C)cn2ncnc12 [Example 264] | 22.9 | 26.8 | 22000
12 | Cc1cc(-c2[nH]nc(-c3nc4c(s3)CN(C3COC3)CC4)c2C(C)C)cn2ncnc12 [Example 253] | 3.01 | 4.7 | 23000
13 | Cc1cc(-c2[nH]nc(-c3cccc(NC(C)C)c3)c2C(C)C)cn2ncnc12 [Example 242] | 16.1 | 47.1 | > 50000
14 | Cc1cc(-c2[nH]nc(C(=O)NC3CCN(C(C)C)CC3)c2C(C)C)cn2ccnc12 [Example 37] | 27 | 12.1 | 27900
15 | Cc1cc(-c2[nH]nc(C(=O)N[C@H]3CC[C@@H](NC(C)C(C)(C)C)CC3)c2C(C)C)cn2ncnc12 (stereo partly drawn) [Example 150] | 0.39 | 0.57 | 2830
16 | CC(C)c1c(C(=O)NC2CCN(C(C)C)CC2)n[nH]c1-c1ccnc2[nH]ncc12 [Example 35] | 0.79 | 2.77 | 4350
17 | Cc1cc(-c2[nH]nc(C(=O)NC3CCOCC3)c2C(C)C)cn2ncnc12 [Example 28] | 265 | 39 | 645
18 | COc1cc(-c2[nH]nc(C(=O)NCC(C)(C)N3CCOCC3)c2C(C)C)cn2ncnc12 [Example 26] | 413 | 442 | 7210
19 | COc1cc(-c2[nH]nc(C(=O)NC3CCNCC3)c2C(C)C)cn2ncnc12 [Example 60] | 27.9 | 36.6 | > 50000
20 | CCC(CC)CN[C@H]1CC[C@@H](NC(=O)c2n[nH]c(-c3cc(C)c4ncnn4c3)c2C(C)C)CC1 [Example 101] | 23 | 3.68 | 4790
21 | Cc1cc(-c2[nH]nc(C(=O)N[C@H]3CC[C@H](NC4CCOC(C)(C)C4)CC3)c2C(C)C)cn2ncnc12 (stereo partly drawn) [Example 115] | 17 | 11.7 | 1210
